In one assay the target is hSTING(R232) (Homo sapiens, UniProt Q86WV6, H232R). Nature of the assay: Luciferase reporter assay in HEK293T-hSTING-Luciferase cells, R232 (wild type) human STING. Format: cell-based. To be noted: 20 hr stimulation, read-out: R232 human activity (EC50 range). In short, it runs like this:
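After 20 hr compound stimulation of 5×10^5 cells, secreted luciferase in the supernatant was measured by luminescence; values are fold-induction over baseline and EC50. The line is a clonal HEK293T stably carrying a STING plasmid (pUNO-1) and a luciferase reporter under five tandem ISREs fused to an ISG54 promoter.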
For orientation: A reporter such as luciferase makes a cellular process visible.

Assay [1] concerns the target cynomolgus monkey STING protein (Macaca fascicularis, UniProt A0A2R3XZA6). Nature of the assay: Luciferase reporter assay, cynomolgus monkey STING overexpressed in HEK293T cells. Format: cell-based. The conditions noted are these: cynomolgus monkey STING overexpressed in HEK293T cells; read-out: Cynomolgus monkey STING activity (EC50 range). Summed up:
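HEK293T cells overexpressing cynomolgus STING with a secreted luciferase reporter were stimulated with compound for 20 hr. Supernatant reporter activity was then measured by Quanti-Luc luminescence, and EC50 values were derived.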

For a further assay, the target named is hSTING(H232) (Homo sapiens, UniProt Q86WV6). Nature of the assay: Luciferase reporter assay in HEK293T-hSTING-Luciferase cells, H232/REF polymorph. Format: cell-based. The conditions noted are these: H232/REF polymorph of human STING, EC50 range class. In short, it runs like this: (§1)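 HEK293T cells stably co-express the hSTING variant (hEF1-HTLV promoter) and an ISRE/ISG54 IRF-inducible luciferase reporter. Clones with minimal ligand-independent activation were used. Cells were stimulated with compounds for 20 hr, and secreted luciferase in the supernatant was read by luminescence to give EC50.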

The target in a further assay is hSTING(HAQ) (Homo sapiens, UniProt Q86WV6, G230A/H232R/R293Q/R71H). Nature of the assay: Luciferase reporter assay in HEK293T-hSTING-Luciferase cells, HAQ polymorph. Format: cell-based. To be noted: HAQ polymorph of human STING, EC50 range class. Summed up: as §1
The test system of the next assay is IRF pathway. The assay can be described thus: Reporter gene expression assay in THP1-Dual cells, IRF axis (secreted Lucia luciferase). Format: cell-based, human. The conditions noted are these: 20 hr stimulation, EC50 range class, read-out: THP-IRF activity. In short, it runs like this:
(§2)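 Human THP-1 monocyte-derived cells with two inducible reporters: 5×10^5 cells seeded and stimulated with compounds for 20 hr. SEAP (QUANTI-Blue) and Lucia luciferase (QUANTI-Luc) measured in supernatant; EC50 values reported as ranges.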

For the next assay, the system named is NF-κB pathway. Nature of the assay: Reporter gene expression assay in THP1-Dual cells, NFkB axis (secreted SEAP). Format: cell-based, human. The conditions noted are these: 20 hr stimulation, EC50 range class, read-out: THP-NFκB activity. Summed up:
as §2

Read-outs that look alike come from different tables or passages of the source.

Sequence of hSTING(R232) (Q86WV6 whole entry H232R, the tested form may be a part): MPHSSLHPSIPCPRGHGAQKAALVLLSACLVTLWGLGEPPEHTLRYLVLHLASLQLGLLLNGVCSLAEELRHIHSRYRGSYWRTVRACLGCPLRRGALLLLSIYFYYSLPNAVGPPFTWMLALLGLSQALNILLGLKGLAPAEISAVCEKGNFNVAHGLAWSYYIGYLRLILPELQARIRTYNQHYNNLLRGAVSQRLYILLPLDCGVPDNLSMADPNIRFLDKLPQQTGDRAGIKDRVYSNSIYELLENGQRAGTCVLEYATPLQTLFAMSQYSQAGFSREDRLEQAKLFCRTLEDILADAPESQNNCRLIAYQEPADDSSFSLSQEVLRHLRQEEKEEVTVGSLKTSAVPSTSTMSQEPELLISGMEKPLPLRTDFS
Sequence of cynomolgus monkey STING protein (A0A2R3XZA6 entry or part of it): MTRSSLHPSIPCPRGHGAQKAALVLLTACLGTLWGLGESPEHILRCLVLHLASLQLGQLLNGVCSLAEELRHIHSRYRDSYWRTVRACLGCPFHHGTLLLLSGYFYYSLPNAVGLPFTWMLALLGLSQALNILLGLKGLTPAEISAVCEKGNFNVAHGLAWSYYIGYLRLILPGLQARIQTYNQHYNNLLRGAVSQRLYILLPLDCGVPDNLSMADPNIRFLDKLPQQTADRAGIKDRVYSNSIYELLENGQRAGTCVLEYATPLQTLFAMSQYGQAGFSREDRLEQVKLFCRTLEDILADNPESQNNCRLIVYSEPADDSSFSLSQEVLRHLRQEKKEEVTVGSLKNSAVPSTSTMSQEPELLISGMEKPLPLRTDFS
Sequence of hSTING(HAQ) (Q86WV6 whole entry R71H/G230A/H232R/R293Q): as the sequence (Q86WV6 whole entry H232R, the tested form may be a part) above, with R71H, G230A, R293Q counted along it
Sequence of hSTING(H232) (Q86WV6 whole entry): as the sequence (Q86WV6 whole entry H232R, the tested form may be a part) above, with R232H counted along it

`Cc1ncc(Cl)c(CN2C(=O)N(C)[C@@H](C)c3ccc(C(=O)NCc4c(F)cc(F)cc4F)cc32)c1F` [Example 77, (S)-1-((5-chloro-3-fluoro-2-methylpyridin-4-yl)methyl)-3,4-dimethyl-2-oxo-N-(2,4,6-trifluorobenzyl)-1,2,3,4-tetrahydroquinazoline-7-carboxamide]: the EC50 (on hSTING(R232); in assay [1]; on hSTING(H232); on hSTING(HAQ); in the assay with IRF pathway (Homo sapiens); in the assay with NF-κB pathway (Homo sapiens)) was under 1000 nM in each case.

Regarding `C[C@H]1c2ccc(C(=O)NCc3c(F)cc(F)cc3F)cc2N(Cc2c(F)cc(O)cc2F)C(=O)N1C` [Example 78, (S)-1-(2,6-difluoro-4-hydroxybenzyl)-3,4-dimethyl-2-oxo-N-(2,4,6-trifluorobenzyl)-1,2,3,4-tetrahydroquinazoline-7-carboxamide], the EC50 (at hSTING(R232); in assay [1]; on hSTING(H232); at hSTING(HAQ); in the assay on IRF pathway (Homo sapiens); in the assay with NF-κB pathway (Homo sapiens)) was under 1000 nM throughout.

On to `C[C@H]1c2ccc(C(=O)NCc3c(F)cc(F)cc3F)cc2N(Cc2c(F)cc(OCCO)cc2F)C(=O)N1C` [Example 80, (S)-1-(2,6-Difluoro-4-(2-hydroxyethoxy)benzyl)-3,4-dimethyl-2-oxo-N-(2,4,6-trifluorobenzyl)-1,2,3,4-tetrahydroquinazoline-7-carboxamide], for which the EC50 on hSTING(R232) was under 1000 nM; in assay [1] it was under 1000 nM; on hSTING(H232) it was under 1000 nM; on hSTING(HAQ), under 1000 nM; in the assay on IRF pathway (Homo sapiens) it was 1000 to 10000 nM; with NF-κB pathway (Homo sapiens) it was 1000 to 10000 nM.

In the case of `C[C@H]1c2ccc(C(=O)NCc3c(F)cc(F)cc3F)cc2N(Cc2c(F)cc(OCCCO)cc2F)C(=O)N1C` [Example 81, (S)-1-(2,6-difluoro-4-(3-hydroxypropoxy)benzyl)-3,4-dimethyl-2-oxo-N-(2,4,6-trifluorobenzyl)-1,2,3,4-tetrahydroquinazoline-7-carboxamide], the EC50 (on hSTING(R232); in assay [1]; on hSTING(H232); on hSTING(HAQ); in the assay with IRF pathway (Homo sapiens); in the assay with NF-κB pathway (Homo sapiens)) was under 1000 nM in each case.

As for `CC(=O)Nc1ccc(COC(=O)Oc2cc(F)c(CN3C(=O)N(C)[C@@H](C)c4ccc(C(=O)NCc5c(F)cc(F)cc5F)cc43)c(F)c2)cc1` [Example 85, (S)-4-Acetamidobenzyl-(4-((3,4-dimethyl-2-oxo-7-((2,4,6-trifluorobenzyl)carbamoyl)-3,4-dihydroquinazolin-1(2H)-yl)methyl)-3,5-difluorophenyl) carbonate], the EC50 (on hSTING(R232); in assay [1]; at hSTING(H232); at hSTING(HAQ); with IRF pathway (Homo sapiens); with NF-κB pathway (Homo sapiens)) was under 1000 nM in each case.

On to `C[C@H]1c2ccc(C(=O)NCc3c(F)cc(F)cc3F)cc2N(Cc2c(F)ccc(O)c2Cl)C(=O)N1C` [Example 87, (S)-1-(2-Chloro-6-fluoro-3-hydroxybenzyl)-3,4-dimethyl-2-oxo-N-(2,4,6-trifluorobenzyl)-1,2,3,4-tetrahydroquinazoline-7-carboxamide], for which the EC50 (on hSTING(R232); in assay [1]; on hSTING(H232); on hSTING(HAQ); in the assay with IRF pathway (Homo sapiens); in the assay with NF-κB pathway (Homo sapiens)) was under 1000 nM in each case.

Turning to `COc1ccc(F)c(CN2C(=O)N(C)[C@@H](C)c3ccc(C(=O)NCc4c(F)cc(F)cc4F)cc32)c1Cl` [Example 88, (S)-1-(2-Chloro-6-fluoro-3-methoxybenzyl)-3,4-dimethyl-2-oxo-N-(2,4,6-trifluorobenzyl)-1,2,3,4-tetrahydroquinazoline-7-carboxamide], the EC50 (on hSTING(R232); in assay [1]; at hSTING(H232); on hSTING(HAQ); in the assay with IRF pathway (Homo sapiens); with NF-κB pathway (Homo sapiens)) was under 1000 nM each time.

Take `C[C@H]1c2ccc(C(=O)NCc3c(F)cc(F)cc3F)cc2N(Cc2c(F)ccc(OCCO)c2Cl)C(=O)N1C` [Example 137, (S)-1-(2-Chloro-6-fluoro-3-(2-hydroxyethoxy)benzyl)-3,4-dimethyl-2-oxo-N-(2,4,6-trifluorobenzyl)-1,2,3,4-tetrahydroquinazoline-7-carboxamide]: the EC50 (on hSTING(R232); in assay [1]; on hSTING(H232); at hSTING(HAQ); in the assay on IRF pathway (Homo sapiens); in the assay with NF-κB pathway (Homo sapiens)) was under 1000 nM in each case.

On to `C[C@H]1c2ccc(C(=O)NCc3c(F)cc(F)cc3F)cc2N(Cc2c(F)ccc(OCCCO)c2Cl)C(=O)N1C` [Example 138, (S)-1-(2-Chloro-6-fluoro-3-(3-hydroxypropoxy)benzyl)-3,4-dimethyl-2-oxo-N-(2,4,6-trifluorobenzyl)-1,2,3,4-tetrahydroquinazoline-7-carboxamide], for which the EC50 (on hSTING(R232); in assay [1]; at hSTING(H232); at hSTING(HAQ); in the assay on IRF pathway (Homo sapiens); with NF-κB pathway (Homo sapiens)) was under 1000 nM throughout.

For the compound `C[C@H]1c2ccc(C(=O)NCc3c(F)cc(F)cc3F)cc2N(Cc2c(F)ccc(C(N)=O)c2F)C(=O)N1C` [Example 141, (S)-1-(3-Carbamoyl-2,6-difluorobenzyl)-3,4-dimethyl-2-oxo-N-(2,4,6-trifluorobenzyl)-1,2,3,4-tetrahydroquinazoline-7-carboxamide], the EC50 (at hSTING(R232); in assay [1]; on hSTING(H232); on hSTING(HAQ); in the assay with IRF pathway (Homo sapiens); in the assay with NF-κB pathway (Homo sapiens)) was under 1000 nM each time.

As for `C[C@H]1c2ccc(C(=O)NCc3c(F)cc(F)cc3F)cc2N(Cc2c(F)cc(OC[C@@H](O)CO)cc2F)C(=O)N1C` [Example 147, (S)-1-(4-((S)-2,3-Dihydroxypropoxy)-2,6-difluorobenzyl)-3,4-dimethyl-2-oxo-N-(2,4,6-trifluorobenzyl)-1,2,3,4-tetrahydroquinazoline-7-carboxamide], the EC50 (at hSTING(R232); in assay [1]; at hSTING(H232); on hSTING(HAQ); in the assay on IRF pathway (Homo sapiens); in the assay on NF-κB pathway (Homo sapiens)) was under 1000 nM throughout.

In the case of `COc1cccc(F)c1CN1C(=O)N(C)C(C)c2ccc(C(=O)NCc3c(F)cc(F)cc3F)cc21` (stereo not drawn) [Example 154, 1-(2-fluoro-6-methoxybenzyl)-3,4-dimethyl-2-oxo-N-(2,4,6-trifluorobenzyl)-1,2,3,4-tetrahydroquinazoline-7-carboxamide], the EC50 (at hSTING(R232); in assay [1]; on hSTING(H232); on hSTING(HAQ); in the assay with IRF pathway; in the assay with NF-κB pathway) was under 1000 nM throughout.

Take `Cc1cccc(F)c1CN1C(=O)N(C)C(C)c2ccc(C(=O)NCc3c(F)cc(F)cc3F)cc21` (stereo not drawn) [Example 162, 1-(2-fluoro-6-methylbenzyl)-3,4-dimethyl-2-oxo-N-(2,4,6-trifluorobenzyl)-1,2,3,4-tetrahydroquinazoline-7-carboxamide]: the EC50 (at hSTING(R232); in assay [1]; at hSTING(H232); on hSTING(HAQ); in the assay with IRF pathway (Homo sapiens); in the assay on NF-κB pathway (Homo sapiens)) was under 1000 nM throughout.

`Cc1ccc(Cl)c(CN2C(=O)N(C)[C@@H](C)c3ccc(C(=O)NCc4c(F)cc(F)cc4F)cc32)c1F` [Example 169, (S)-1-(6-chloro-2-fluoro-3-methylbenzyl)-3,4-dimethyl-2-oxo-N-(2,4,6-trifluorobenzyl)-1,2,3,4-tetrahydroquinazoline-7-carboxamide]: the EC50 (on hSTING(R232); in assay [1]; at hSTING(H232); on hSTING(HAQ); with IRF pathway (Homo sapiens); in the assay on NF-κB pathway (Homo sapiens)) was under 1000 nM throughout.

In the case of `C[C@H]1c2ccc(C(=O)NCc3c(F)cc(F)cc3F)cc2N(Cc2c(Cl)ccc(F)c2F)C(=O)N1C` [Example 177, (S)-1-(6-chloro-2,3-difluorobenzyl)-3,4-dimethyl-2-oxo-N-(2,4,6-trifluorobenzyl)-1,2,3,4-tetrahydroquinazoline-7-carboxamide], the EC50 (at hSTING(R232); in assay [1]; on hSTING(H232); on hSTING(HAQ); in the assay with IRF pathway (Homo sapiens); with NF-κB pathway (Homo sapiens)) was under 1000 nM in each case.
